According to patent US7566530B2 (priority 2004, dated 2009):
Like-named read-outs stand apart in the source and are kept apart here.

What was measured:
PrP^sc = assay type: biochemical, bovine; settings: for location of PrP^sc bands (starting supernatant or pellet) after centrifugation: 2.5, 5, 10 mg added to 50 μl PrP^sc sample, 37° C. 1 h; for location of PrP^sc bands (starting supernatant or pellet) after centrifugation / crosslinking and precipitation of PrP: FIG. 4; for crosslinking and precipitation of PrP: simple centrifuge, no ultracentrifugation
PrP^res = assay type: biochemical, human

## NCCCNCCCN [bis-3-aminopropylamine]
PrP^sc; 130-1040 μg added to 5 μl PrP^sc, 30 min room temperature, pellet supernatant, FIG. 6
  apparent molecular mass of the prion protein bands compared to a control without molecule: induces an increase in the apparent molecular mass of the 3 prion protein bands
PrP^sc; 130-1040 μg, 12 000 rpm 5 min, FIG. 6
  precipitation of the prion protein on centrifugation: the prion protein precipitates

## CN[C@@H]1[C@H](O[C@H]2[C@H](O[C@H]3[C@H](O)[C@@H](O)[C@H](NC(=N)N)[C@@H](O)[C@@H]3NC(=N)N)O[C@@H](C)[C@]2(O)CO)O[C@@H](CO)[C@H](O)[C@H]1O [dihydrostreptomycin sesquisulfate]
PrP^sc; 12 000 rpm 5 min
  location of PrP^sc bands (starting supernatant or pellet) after centrifugation: the PrP^sc material is found in the pellet
PrP^sc
  crosslinking and precipitation of PrP: induces crosslinking of PrP which allows complete precipitation thereof

## heparin
PrP^res
  sensitivity and specificity of detection of PrP^res of lymphoid origin in blood samples: confirms the sensitivity and the specificity of detection of PrP^res

## NCCNCCNCCN [triethylenetetramine]
PrP^sc; 105-840 μg TET added to 5 μl PrP^sc (250 μg brain), supernatant, FIG. 5
  apparent molecular mass of the prion protein bands compared to a control without molecule: induces an increase in the apparent molecular mass of the prion protein
PrP^sc; 105-840 μg TET, FIG. 5
  crosslinking of PrP versus dose: a crosslinking of PrP proportional to the dose of TET

## [H]/N=C(/N)N[C@H]1[C@H](O)[C@@H](O)[C@H](O[C@@H]2O[C@@H](C)[C@](O)(C=O)[C@H]2O[C@@H]2O[C@@H](CO)[C@H](O)[C@@H](O)[C@@H]2NC)[C@@H](N/C(N)=N\[H])[C@@H]1O [streptomycin]
PrP^sc; 12 000 rpm 5 min
  location of PrP^sc bands (starting supernatant or pellet) after centrifugation: the PrP^sc material is found in the pellet
PrP^sc
  crosslinking and precipitation of PrP: induces crosslinking of PrP which allows complete precipitation thereof
